Measured values from ChEMBL document CHEMBL2069197 (ACS Med Chem Lett, 2012).
≈ marks a conversion by molar mass, not a printed value.

Legend:
[1] = Neuroprotective activity in cortical neurons assessed as reduction in glutamate-induced cell death at 5 uM incubated for 24 hrs prior to glutamate-challenge measured after 24 hrs by MTT assay; type: functional, Cortical neurone; parameters: scale not given: the % may be the effect or the level left
[2] = Neuroprotective activity in cortical neurons assessed as reduction in glutamate-induced cell death at 10 uM incubated for 24 hrs prior to glutamate-challenge measured after 24 hrs by MTT assay; type: functional, Cortical neurone; parameters: scale not given: the % may be the effect or the level left
[3] = Stability in cortical neurons assessed as drug metabolism at 5 uM; type: ADME; settings: cortical neurone
[4] = Aqueous solubility of the compound in phosphate buffered saline after 90 mins by laser nephelometry at pH 7.4; type: physicochemical
[5] = Aqueous solubility of the compound in phosphate buffered saline after 90 mins by laser nephelometry at pH 4; type: physicochemical
Rattus norvegicus [6] = experiment: Metabolic stability in Sprague-Dawley rat assessed as compound remaining at 10 mg/kg, iv administered as single dose by LC-MS/MS analysis; type: ADME, organism-based; parameters: dose 10 mg/kg, route intravenous; settings: in vivo
Rattus norvegicus [7] = experiment: Drug metabolism in Sprague-Dawley rat assessed as free oxime formation at 10 mg/kg, iv administered as single dose by LC-MS/MS analysis; type: ADME, organism-based; parameters: dose 10 mg/kg, route intravenous; settings: in vivo
Rattus norvegicus [8] = experiment: Drug metabolism in Sprague-Dawley rat assessed as progesterone formation at 10 mg/kg, iv administered as single dose by LC-MS/MS analysis; type: ADME, organism-based; parameters: dose 10 mg/kg, route intravenous; settings: in vivo
Rattus norvegicus [9] = experiment: Neuroprotective activity in rat assessed as reduction in bilateral cortical contusion-induced cerebral edema at 8 mg/kg, ip administered at 1 hr post-injury followed by 8 mg/kg, sc administered 6 hrs post-injury measured after 24 hrs relative to untreated control; type: functional; parameters: scale not given: the % may be the effect or the level left
[10] = Half life in aqueous media at pH 7; type: physicochemical; settings: for half-life: aqueous media; for t1/2: buffer
Rattus norvegicus [11] = experiment: Drug metabolism in Sprague-Dawley rat assessed as compound remaining at 10 mg/kg, im administered as single dose by LC-MS/MS analysis; type: ADME, organism-based; parameters: dose 10 mg/kg, route intramuscular; settings: in vivo
Rattus norvegicus [12] = experiment: Drug metabolism in Sprague-Dawley rat assessed as free oxime formation at 10 mg/kg, im administered as single dose by LC-MS/MS analysis; type: ADME, organism-based; parameters: dose 10 mg/kg, route intramuscular; settings: in vivo
Rattus norvegicus [13] = experiment: Drug metabolism in Sprague-Dawley rat assessed as progesterone formation at 10 mg/kg, im administered as single dose by LC-MS/MS analysis; type: ADME, organism-based; parameters: dose 10 mg/kg, route intramuscular; settings: in vivo
Plasma [14] = experiment: Drug metabolism rat plasma assessed as free oxime formation at 10 uM by LC-MS/MS analysis; type: ADME, cell-free
[15] = Drug metabolism in rat liver S9 fraction assessed as free oxime formation; type: ADME, subcellular
[16] = Drug metabolism in rat liver S9 fraction assessed as progesterone formation; type: ADME, subcellular
Plasma [17] = experiment: Drug metabolism human plasma assessed as free oxime formation at 10 uM by LC-MS/MS analysis; type: ADME, cell-free
Liver = experiment: Metabolic stability in rat liver S9 fraction assessed as compound remaining; type: ADME, subcellular
[18] = Neuroprotective activity in cortical neurons assessed as reduction in glutamate-induced cell death at 1 uM incubated for 24 hrs prior to glutamate-challenge measured after 24 hrs by MTT assay; type: functional, Cortical neurone; parameters: scale not given: the % may be the effect or the level left
Rattus norvegicus [19] = experiment: Drug metabolism in Sprague-Dawley rat plasma assessed as progesterone formation at 4 mg/kg, iv; type: ADME, organism-based; parameters: dose 4 mg/kg, route intravenous; settings: in vivo
Rattus norvegicus [20] = experiment: Neuroprotective activity in rat assessed as reduction in bilateral cortical contusion-induced cerebral edema at 4 mg/kg, iv administered as single dose 1 hr post-injury measured after 24 hrs relative to untreated; type: functional; parameters: scale not given: the % may be the effect or the level left
in vivo = settings: Sprague-Dawley, rat, plasma, iv, 4 mg/kg
Description: Half life in Sprague-Dawley rat plasma at 4 mg/kg, iv

Compound	Activity [1] [%]	Stability [3]	solubility kinetic at 1.5 h [4] [µM]	solubility kinetic at 1.5 h [5] [µM]	half-life [10] [h]	other results
C/C(=N\OC(=O)[C@@H]1CCCN1)[C@H]1CC[C@H]2[C@@H]3CCC4=CC(=O)CC[C@]4(C)[C@H]3CC[C@]12C	21	Stable	34 (≈ 14.5 µg/mL)	395 (≈ 169 µg/mL)	–	Activity [2]: 33%
C/C(=N\OC(=O)[C@@H](N)C(C)C)[C@H]1CC[C@H]2[C@@H]3CCC4=CC(=O)CC[C@]4(C)[C@H]3CC[C@]12C.Cl	24	Stable	146	> 645	11.3	Stability (Rattus norvegicus [6]): Unstable; Drug metabolism (Rattus norvegicus [7]): Active; Drug metabolism (Rattus norvegicus [8]): Active; Activity (Rattus norvegicus [9]): 56%; Stability (Rattus norvegicus [11]): Unstable; Drug metabolism (Rattus norvegicus [12]): Active; Drug metabolism (Rattus norvegicus [13]): Not Active; Drug metabolism (Plasma [14]): Active; Drug metabolism [15]: Active; Drug metabolism [16]: Active; Drug metabolism (Plasma [17]): Active
C/C(=N\O)[C@H]1CC[C@H]2[C@@H]3CCC4=CC(=O)CC[C@]4(C)[C@H]3CC[C@]12C	–	Stable	–	–	–	Drug metabolism [16]: Not Active; Stability (Liver): Stable
C/C(=N\OC(=O)c1ccc[n+](C)c1)[C@H]1CC[C@H]2[C@@H]3CCC4=CC(=O)CC[C@]4(C)[C@H]3CC[C@]12C.[I-]	0	Stable	212	349	3.1	Activity [18]: 14%
C/C(=N\OC(=O)CN1CCOCC1)[C@H]1CC[C@H]2[C@@H]3CCC4=CC(=O)CC[C@]4(C)[C@H]3CC[C@]12C	–	Stable	215 (≈ 98.2 µg/mL)	215 (≈ 98.2 µg/mL)	–	–
C/C(=N\OC(=O)[C@@H]1CCC[N+]1(C)C)[C@H]1CC[C@H]2[C@@H]3CCC4=CC(=O)CC[C@]4(C)[C@H]3CC[C@]12C.[I-]	–	Stable	51	345	0.833	–
C/C(=N\OC(=O)[C@@H]1CCCNC1)[C@H]1CC[C@H]2[C@@H]3CCC4=CC(=O)CC[C@]4(C)[C@H]3CC[C@]12C.Cl	–	Stable	428	> 500	38.5	–
C/C(=N\OC(=O)C1CCNCC1)[C@H]1CC[C@H]2[C@@H]3CCC4=CC(=O)CC[C@]4(C)[C@H]3CC[C@]12C.Cl	4	Stable	247	247	94.8	Activity [2]: 24%
C/C(=N\OC(=O)c1cccnc1)[C@H]1CC[C@H]2[C@@H]3CCC4=CC(=O)CC[C@]4(C)[C@H]3CC[C@]12C	20	Stable	< 35	< 35	–	t1/2 [10]: ND(Insoluble)
CC(=O)[C@H]1CC[C@H]2[C@@H]3CCC4=C/C(=N/O)CC[C@]4(C)[C@H]3CC[C@]12C	21	Stable	< 45	< 45	> 240	Drug metabolism (Rattus norvegicus [19]): Not Active; Activity (Rattus norvegicus [20]): 60%; half-life (in vivo): 2.7 h
CO/N=C(\C)[C@H]1CC[C@H]2[C@@H]3CCC4=CC(=O)CC[C@]4(C)[C@H]3CC[C@]12C	–	Stable	< 25	< 25	> 240	–
C/C(=N\OCCN1CCOCC1)[C@H]1CC[C@H]2[C@@H]3CCC4=CC(=O)CC[C@]4(C)[C@H]3CC[C@]12C	26	Stable	108 (≈ 47.8 µg/mL)	> 450	> 240	–
C/C(=N\OC(=O)CN1CCN(C)CC1)[C@H]1CC[C@H]2[C@@H]3CCC4=CC(=O)CC[C@]4(C)[C@H]3CC[C@]12C	–	Stable	145 (≈ 68.1 µg/mL)	153 (≈ 71.9 µg/mL)	70.6	–
C/C(=N\OC(=O)c1ccc(CN2CCN(C)CC2)cc1)[C@H]1CC[C@H]2[C@@H]3CCC4=CC(=O)CC[C@]4(C)[C@H]3CC[C@]12C	–	Stable	< 30	< 30	–	t1/2 [10]: ND(Insoluble)
C/C(=N\OC(=O)CN(C)C)[C@H]1CC[C@H]2[C@@H]3CCC4=CC(=O)CC[C@]4(C)[C@H]3CC[C@]12C	–	Stable	171 (≈ 70.9 µg/mL)	449 (≈ 186 µg/mL)	–	–
C/C(=N\OC(=O)C1CC[N+](C)(C)CC1)[C@H]1CC[C@H]2[C@@H]3CCC4=CC(=O)CC[C@]4(C)[C@H]3CC[C@]12C.[I-]	0	Stable	> 500	> 500	70.6	–
CC(=O)O/N=C(\C)[C@H]1CC[C@H]2[C@@H]3CCC4=CC(=O)CC[C@]4(C)[C@H]3CC[C@]12C	–	Stable	100 (≈ 37.2 µg/mL)	180 (≈ 66.9 µg/mL)	–	–
CC(=O)[C@H]1CC[C@H]2[C@@H]3CCC4=C/C(=N/OC(=O)[C@@H](N)C(C)C)CC[C@]4(C)[C@H]3CC[C@]12C.Cl	27	Stable	172	322	10.1	Stability (Rattus norvegicus [6]): Unstable; Drug metabolism (Rattus norvegicus [7]): Active; Drug metabolism (Rattus norvegicus [8]): Active; Activity (Rattus norvegicus [9]): 59%; Stability (Rattus norvegicus [11]): Unstable; Drug metabolism (Rattus norvegicus [12]): Active; Drug metabolism (Rattus norvegicus [13]): Not Active; Drug metabolism (Plasma [14]): Active; Drug metabolism (Plasma [17]): Active
C/C(=N\OC(=O)[C@H]1CCCNC1)[C@H]1CC[C@H]2[C@@H]3CCC4=CC(=O)CC[C@]4(C)[C@H]3CC[C@]12C.Cl	–	Stable	314	314	40.8	–
C/C(=N\OC(=O)C1CCN(C)CC1)[C@H]1CC[C@H]2[C@@H]3CCC4=CC(=O)CC[C@]4(C)[C@H]3CC[C@]12C	–	Stable	108 (≈ 49.1 µg/mL)	> 660	–	–
C/C(=N\OC(=O)C[N+](C)(C)C)[C@H]1CC[C@H]2[C@@H]3CCC4=CC(=O)CC[C@]4(C)[C@H]3CC[C@]12C.[I-]	–	Stable	45	> 540	0.933	–
C/C(=N\OC(=O)c1ccc(CN)cc1)[C@H]1CC[C@H]2[C@@H]3CCC4=CC(=O)CC[C@]4(C)[C@H]3CC[C@]12C.Cl	–	Stable	< 30	< 30	–	t1/2 [10]: ND(Insoluble)
